Reference: patent publication US10869878B2, “Vaginal composition and use thereof” (SINGAPORE ZE&Z INTERNATIONAL PTE. LTD, priority 2014, dated 2020)

Key:
Format in all cases: cell-based
[1] = tested on: Bifidobacteria in the secretions from BV patients; test: Selective promotion of carbohydrate containing gels for the growth of Bifidobacteria (Experimental Example 4); settings: secretions from 20 BV patients; 1% (w/v) carbohydrate gel, 48 hrs slightly aerobic
Description: (§1) (3) After sampling, the vaginal secretion specimens from BV patients meeting the criteria of inclusion were immediately inoculated to the above 4 gels containing a carbohydrate, slightly aerobically incubated at 37° C. for 48 hrs, then transferred to a plate containing improved MRS with 1% (w/v) glucose and 5% (w/v) calf serum, slightly aerobically incubated for 20-48 hrs, isolated, purified and multiplied. The strain was identified by 16s rDNA sequencing.

BV-associated bacteria [2] = test: Acid production by BV-associated bacteria, carbohydrates and antibacterial agents in combination (Experimental Example 3); settings: anaerobic, 37° C., 1.5% (w/v) carbohydrate, initial pH 5.4
Description: (1) Grouping in experiment: • (1) Sucrose-preservative group: containing 1.5% (w/v) sucrose, 0.5% (w/v) sodium propionate, 0.025% (w/v) sodium dehydroacetate, MRS basal medium without carbohydrate, 5% (w/v) calf serum, and 0.45% (w/v) agar, pH5.4; • (2) Isomaltose-preservative group: containing 1.5% (w/v) isomaltose, 0.5% (w/v) sodium propionate, 0.025% (w/v) sodium dehydroacetate, MRS basal medium without carbohydrate, 5% (w/v) calf serum, and 0.45% (w/v) agar, pH5.4; • (3) Isomaltulose-preservative group: containing 1.5% (w/v) isomaltulose, 0.5% (w/v) sodium propionate, 0.025% (w/v) sodium dehydroacetate, MRS basal medium without carbohydrate, 5% (w/v) calf serum, and 0.45% (w/v) agar, pH5.4; • (4) Sucrose control group: containing 1.5% (w/v) sucrose, MRS basal medium without carbohydrate, 5% (w/v) calf serum, and 0.45% (w/v) agar, pH5.4; • (5) Isomaltose control group: containing 1.5% (w/v) isomaltose, MRS basal medium without carbohydrate, 5% (w/v) calf serum, and 0.45% (w/v) agar, pH5.4; and • (6) Isomaltulose control group: containing 1.5% (w/v) isomaltulose, MRS basal medium without carbohydrate, 5% (w/v) calf serum, and 0.45% (w/v) agar, pH5.4.
The semi-solid agar of each group is formulated essentially following the method described in Composition Example 1, then sterilized, added with calf serum, and packed in test tubes in a specification of 5 g/tube, for late use.
(§2) (2) Secretion specimens from BV patients: vaginal secretions from 2 BV patients; and the criteria of inclusion are: • (1) conforming to the Amsel clinical criteria of BV diagnosis, wherein the pH value of the vaginal secretions was >4.6; • (2) after smearing, Gram staining, and microscopical examination of vaginal secretions, Nugent score ≥7; and • (3) no other vaginosis, and no antimicrobial agent is used within two weeks.
(3) After sampling, the vaginal secretion specimens from BV patients meeting the criteria of inclusion were immediately inoculated to 3 semi-solid agars containing a carbohydrate and a preservative and 3 control agars at the bedside, and anaerobically incubated at 37° C. for […]. The pH values of the agar matrices are detected with a precise pH test paper after 30 or 32 hrs and 40 or 48 hrs of incubation.

Canidia albicans = test: Metabolization of carbohydrates by Canidia albicans, residual carbohydrate by HPLC (Experimental Example 5); settings: 72 hrs aerobic, 37° C., initial 1.5% (w/v) carbohydrate, pH 7.0, detection limit 0.05% (w/v)
Description: (1) Grouping in experiment:
(2) Test strain: 2 strains of Canidia albicans, isolated from patients with candidal vaginitis.
The supernatant was separated by centrifugation, and packed in a specification of 5 ml/tube. The carbohydrate content in each tube was detected by HPLC.

BV-associated bacteria [3] = test: Acid production by BV-associated bacteria in carbohydrate containing gels, slightly aerobic incubation (Experimental Example 1); settings: 1% (w/v) carbohydrate gel
Description: (1) Grouping in experiment: • (1) Isomaltulose group: containing 1% (w/v) isomaltulose, MRS basal medium without carbohydrate, 5% (w/v) calf serum, and 0.5% (w/v) xanthan gum, pH5.4; • (2) Isomaltose group: containing 1% (w/v) isomaltose, MRS basal medium without carbohydrate, 5% (w/v) calf serum, and 0.5% (w/v) xanthan gum, pH5.4; • (3) Sucrose group: containing 1% (w/v) sucrose, MRS basal medium without carbohydrate, 5% (w/v) calf serum, and 0.5% (w/v) xanthan gum, pH5.4; and • (4) Maltose group: containing 1% (w/v) maltose, MRS basal medium without carbohydrate, 5% (w/v) calf serum, and 0.5% (w/v) xanthan gum, pH5.4.
The gel of each group was formulated essentially following the method described in Composition Example 1, then sterilized, added with calf serum, and packed in test tubes in a specification of 5 g/tube, for late use.
as §2, with “from 5” for “from 2”, “Gram staining” for “Gram staining,”, “other vaginosis” for “other vaginosis,”
(3) After sampling, the secretion specimens from BV patients meeting the criteria of inclusion were immediately inoculated to the above 4 gels containing a carbohydrate, and slightly aerobically incubated at 37° C. for 46 hrs. The pH values of the gel matrices are detected with a precise pH test paper respectively at 14 hrs, 36 hrs, and 46 hrs.

[4] = tested on: Lactobacilli in the secretions from BV patients; test: Selective promotion of carbohydrate containing gels for the growth of Lactobacilli, 16s rDNA identification (Experimental Example 4); settings: secretions from 20 BV patients; 1% (w/v) carbohydrate gel, 48 hrs slightly aerobic
Description: as §1

[5] = tested on: Gardnerella vaginalis in the secretions from BV patients; test: Selective promotion of carbohydrate containing gels for the growth of Gardnerella vaginalis (Experimental Example 4); settings: secretions from 20 BV patients; 1% (w/v) carbohydrate gel, 48 hrs slightly aerobic
Description: as §1

[6] = Specimen 1, 14 hrs, slightly aerobic, 37° C., initial pH 5.4
[7] = Specimen 1, 46 hrs, slightly aerobic, 37° C., initial pH 5.4
[8] = Specimen 2, 14 hrs, slightly aerobic, 37° C., initial pH 5.4
[9] = Specimen 2, 46 hrs, slightly aerobic, 37° C., initial pH 5.4
[10] = Specimen 3, 14 hrs, slightly aerobic, 37° C., initial pH 5.4
[11] = Specimen 3, 36 hrs, slightly aerobic, 37° C., initial pH 5.4
[12] = Specimen 4, 14 hrs, slightly aerobic, 37° C., initial pH 5.4
[13] = Specimen 4, 36 hrs, slightly aerobic, 37° C., initial pH 5.4
[14] = Specimen 5, 14 hrs, slightly aerobic, 37° C., initial pH 5.4
[15] = Specimen 5, 36 hrs, slightly aerobic, 37° C., initial pH 5.4

SMILES | number of samples positive for Bifidobacterium bifidum [1] | number of samples positive for Bifidobacterium breve [1] | number of samples positive for Bifidobacterium dentium [1] | number of samples positive for Bifidobacterium longum [1] | samples positive for Bifidobacteria, In total [1] | pH of the semi-solid agar (BV-associated bacteria [2]; Specimen 1 (30 hrs)) | pH of the semi-solid agar (BV-associated bacteria [2]; Specimen 2 (32 hrs)) | residual carbohydrate content by HPLC (Canidia albicans; Canidia albicans 1) [g %] | residual carbohydrate content by HPLC (Canidia albicans; Canidia albicans 2) [g %] | pH of the gel (BV-associated bacteria [3]; Specimen 1, 0 hr (initial)) | pH of the gel (BV-associated bacteria [3]; [6]) | pH of the gel (BV-associated bacteria [3]; [7]) | pH of the gel (BV-associated bacteria [3]; Specimen 2, 0 hr (initial)) | pH of the gel (BV-associated bacteria [3]; [8]) | pH of the gel (BV-associated bacteria [3]; [9]) | pH of the gel (BV-associated bacteria [3]; Specimen 3, 0 hr (initial)) | pH of the gel (BV-associated bacteria [3]; [10]) | pH of the gel (BV-associated bacteria [3]; [11]) | pH of the gel (BV-associated bacteria [3]; Specimen 4, 0 hr (initial)) | pH of the gel (BV-associated bacteria [3]; [12]) | also measured
OC[C@H]1O[C@H](OC[C@H]2OC(O)[C@H](O)[C@@H](O)[C@@H]2O)[C@H](O)[C@@H](O)[C@@H]1O (stereo partly drawn) [Isomaltose, isomaltose] | 0 | 0 | 0 | 0 | 0 | 3.8 | 3.8-4.1 | 0.74 | 0.76 | 5.4 | 3.8 | ≤3.8 | 5.4 | 4.1-4.4 | ≤3.8 | 5.4 | 4.1-4.4 | ≤3.8 | 5.4 | 4.4 | pH of the gel (BV-associated bacteria [3]; [13]): ≤3.8; pH of the gel (BV-associated bacteria [3]; Specimen 5, 0 hr (initial)): 5.4; pH of the gel (BV-associated bacteria [3]; [14]): 4.1-4.4; pH of the gel (BV-associated bacteria [3]; [15]): 4.1-4.4; samples positive for Lactobacilli, In total [4]: 9; total number of samples positive for L. amylovorus incubation [4]: 1; total number of samples positive for L. crispatus incubation [4]: 1; total number of samples positive for L. gasseri incubation [4]: 2; total number of samples positive for L. iners incubation [4]: 0; total number of samples positive for L. jensenii incubation [4]: 4; total number of samples positive for L. mucosae incubation [4]: 1; number of samples positive for Gardnerella vaginalis [5]: 2 (15, 19); samples positive for Gardnerella vaginalis, In total [5]: 2
OC[C@H]1O[C@H](OC[C@H]2OC(O)(CO)[C@@H](O)[C@@H]2O)[C@H](O)[C@@H](O)[C@@H]1O (stereo partly drawn) [Isomaltulose, isomaltulose] | 0 | 0 | 0 | 0 | 0 | 3.8 | 3.8 | 0.11 | 0.12 | 5.4 | ≤3.8 | ≤3.8 | 5.4 | 4.1 | ≤3.8 | 5.4 | 3.8-4.1 | ≤3.8 | 5.4 | 4.1 | pH of the gel (BV-associated bacteria [3]; [13]): ≤3.8; pH of the gel (BV-associated bacteria [3]; Specimen 5, 0 hr (initial)): 5.4; pH of the gel (BV-associated bacteria [3]; [14]): 4.1-4.4; pH of the gel (BV-associated bacteria [3]; [15]): ≤3.8; samples positive for Lactobacilli, In total [4]: 9; total number of samples positive for L. amylovorus incubation [4]: 1; total number of samples positive for L. crispatus incubation [4]: 1; total number of samples positive for L. gasseri incubation [4]: 2; total number of samples positive for L. iners incubation [4]: 0; total number of samples positive for L. jensenii incubation [4]: 4^1; total number of samples positive for L. mucosae incubation [4]: 1; number of samples positive for Gardnerella vaginalis [5]: 2 (15, 19); samples positive for Gardnerella vaginalis, In total [5]: 2
OC[C@H]1O[C@@](CO)(O[C@H]2O[C@H](CO)[C@@H](O)[C@H](O)[C@H]2O)[C@@H](O)[C@@H]1O [Sucrose, sucrose] | 0 | 0 | 0 | 0 | 0 | 3.8 | 3.8 | 1.04 | 0.95 | 5.4 | ≤3.8 | ≤3.8 | 5.4 | 4.4 | ≤3.8 | 5.4 | 4.8-5.1 | 4.4-4.6 | 5.4 | 4.8-5.1 | pH of the gel (BV-associated bacteria [3]; [13]): ≤3.8; pH of the gel (BV-associated bacteria [3]; Specimen 5, 0 hr (initial)): 5.4; pH of the gel (BV-associated bacteria [3]; [14]): 4.4-4.6; pH of the gel (BV-associated bacteria [3]; [15]): 4.4-4.6; samples positive for Lactobacilli, In total [4]: 9; total number of samples positive for L. amylovorus incubation [4]: 1; total number of samples positive for L. crispatus incubation [4]: 1; total number of samples positive for L. gasseri incubation [4]: 2; total number of samples positive for L. iners incubation [4]: 0; total number of samples positive for L. jensenii incubation [4]: 4; total number of samples positive for L. mucosae incubation [4]: 1; number of samples positive for Gardnerella vaginalis [5]: 3 (8, 15, 19); samples positive for Gardnerella vaginalis, In total [5]: 3
